# Data published in article PMC11714206, “Massively Parallel Screening of Toll/Interleukin‐1 Receptor (TIR)‐Derived Peptides Reveals Multiple Toll‐Like Receptors (TLRs)‐Targeting Immunomodulatory Peptides” (Advanced Science, 2024).
# Target: T1, MyD88^TIR (Homo sapiens, UniProt Q99836)
# T1 construct: MyD88 (residues 148–296); 6xHis; made in house; host or cells: E. coli BL21 (DE3)
# Test: T‐Surf phage library (P8 and P3) selection against MyD88^TIR, four rounds, NGS read counts
# Type: binding
# Conditions: for Population: 4th round of selection against MyD88 TIR, share of NGS reads; for P8_MyD88 Rank (after) / P8_MyD88 Rank (before): P8 library; for P3_MyD88 Rank (after) / P3_MyD88 Rank (before): P3 library
# Protocol: T‐Surf libraries were screened against the immobilized TIR domains of two major human TLR adaptor proteins, MAL^TIR and MyD88^TIR, allowing cross‐species selection of TIR‐binding motifs with 190 946 TIR‐derived peptides in a single binding assay (Scheme 1). Enriched phage pools from the fourth round of selection were analyzed using NGS after barcoding the peptide‐coding regions of the phage pools.
# Phage display screening was performed by coating two wells of a 96‐well plate (Maxisorp, Thermo Fisher Scientific) with 100 µL of 5 µg mL^−1 TIR domains overnight; then, the coated wells were blocked with 200 µL of blocking buffer (0.2% BSA in PBS) and set aside for 1 h at 4 °C with gentle shaking. Next, 100 µL of the phage library was added to the wells and incubated for 1 h at room temperature (RT; 20 – 22 °C) with gentle shaking. The plate was washed four times with PBS containing 0.5% Tween‐20; the bound phages were eluted by adding 100 µL of 100 mM HCl to each well. The elute was neutralized with 10 µL of 1.0 M Tris‐HCl (pH 11.0). E. coli TG1 cells were grown to the log phase (A600 = ≈0.6), and 1 mL of the culture was incubated with 100 µL of the eluted phages for 30 min at 37 °C, with shaking at 200 rpm. Next, 1 µL of M13KO7 helper phages was added, followed by incubation for 45 min at 37 °C, with shaking. Subsequently, the cells were transferred to 25 mL of 2× yeast extract tryptone/carbenicillin/kanamycin medium and incubated overnight at 37 °C with shaking at 200 rpm. The amplified phages were precipitated with 20% PEG‐8000/2.5 M NaCl to be used for the next round of selection.
# The naïve T‐Surf libraries in P8 and P3 and the enriched phage pools after four rounds were barcoded for NGS as previously described.^[ [59] ^] Briefly, 5 µL of the phage pool was used as a template for 20 cycles of a 50 µL PCR reaction using […] each of forward and reverse barcoded primers and PrimeSTAR Max DNA Polymerase. The PCR products were purified using Expin Gel SV (GeneAll). The NGS samples were quantified using qPCR, following the qPCR Quantification Protocol Guide (KAPA Library Quantification kits for Illumina Sequencing Platform), and qualified using the TapeStation High Sensitivity D1000 ScreenTape (Agilent Technologies). The indexed libraries were further sequenced by Macrogen (Seoul, Republic of Korea) using the NovaSeq platform (Illumina) with 100 bp paired‐end reads. The reads were demultiplexed by barcodes and filtered for an average Phred quality score of at least 30, followed by trimming the flanking consensus sequences using Cutadapt (version 2.3). Peptide sequence populations were analyzed according to the read counts.
# [1] = P3_MyD88 pool: P3 T-Surf phage library
# [2] = P3_MyD88: rank by count after grouping
# [3] = P3_MyD88: rank by count before grouping
# [4] = 4R selection against MyD88, rank after grouping
# [5] = 4R selection against MyD88, rank before grouping
# [6] = selection against MyD88, rank by count after grouping
# [7] = selection against MyD88, rank by count before grouping
# [8] = P8_MyD88: rank by NGS read count after grouping
# [9] = P8_MyD88: rank by NGS read count before grouping
# [10] = selection against MyD88, rank after grouping
# [11] = selection against MyD88, rank before grouping
# [12] = selection against MyD88 TIR, rank by count after grouping
# [13] = selection against MyD88 TIR, rank by count before grouping
# [14] = P8_MyD88: rank by count after grouping
# [15] = P8_MyD88: rank by count before grouping
# [16] = P8_MyD88 pool: P8 T-Surf phage library
# T1 sequence (Q99836 148-296): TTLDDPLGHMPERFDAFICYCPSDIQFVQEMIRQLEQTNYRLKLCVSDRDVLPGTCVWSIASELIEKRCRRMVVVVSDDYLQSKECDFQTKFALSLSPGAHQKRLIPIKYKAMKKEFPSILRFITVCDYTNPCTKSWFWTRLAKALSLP
sequence,measurement,setting,value
DHHLDLPRGKAIKREILG,Population,[1],0.00437%
YTALTNSGIHTLRDND,Rank (after),[2],174
same,Rank (before),[3],1691
DVVCDYLLPNLEGPAG,P8_MyD88 Rank (after),[4],606
same,P8_MyD88 Rank (before),[5],2555
YTALTNMSFHTFRDNY,P3_MyD88 Rank (after),[6],677
same,P3_MyD88 Rank (before),[7],1653
SSFREGLWRLLELSKN,Population,[1],0.00349%
LGYQWNDWEYFVGIED,Rank (after),[8],957
same,Rank (before),[9],3326
DTALTNSGFHTLRDND,Rank (after),[2],450
same,Rank (before),[3],2091
SAASDDFWDGLIRMIE,P8_MyD88 Rank (after),[10],502
same,P8_MyD88 Rank (before),[11],3704
DTKLKEGDCVPPELLR,P3_MyD88 Rank (after),[4],664
same,P3_MyD88 Rank (before),[5],2090
EWIREQLRPALKERLP,Population,[1],0.00466%
WPEDYQDIGWFLDNLS,P8_MyD88 Rank (after),[12],202
same,P8_MyD88 Rank (before),[13],275
PSEVRKQTGSLAKAAL,P3_MyD88 Rank (after),[4],593
same,P3_MyD88 Rank (before),[5],2756
DSWTSAALYEALHALL,Rank (after),[14],156
same,Rank (before),[15],172
same,Population,[16],0.00809%
LGYHLIVWEYFVGIED,P8_MyD88 Rank (after),[6],744
same,P8_MyD88 Rank (before),[7],3227
QDLGWFYERLVSLF,P8_MyD88 Rank (after),[4],590
same,P8_MyD88 Rank (before),[5],3565
YLLAGDFWIFFTLLTA,P8_MyD88 Rank (after),[6],738
same,P8_MyD88 Rank (before),[7],1964
DWVWDYLLQSGRPSG,Rank (after),[8],932
same,Rank (before),[9],2451
SSLREGLWRLLELSKK,Population,[1],0.00291%
YATSSWALNELVYLIM,Rank (after),[14],146
same,Rank (before),[15],162
same,Population,[16],0.00886%
SSFRDGLWRLLELSKT,Rank (after),[2],106
same,Rank (before),[3],1198
DWVWDELLKILYANETM,P8_MyD88 Rank (after),[4],647
same,P8_MyD88 Rank (before),[5],2457
DLCDILSQNGIPTFFD,P8_MyD88 Rank (after),[10],534
same,P8_MyD88 Rank (before),[11],2582
LFWDRLLYSLHVTE,P8_MyD88 Rank (after),[10],569
same,P8_MyD88 Rank (before),[11],3208
NQWHNALTAAANLSGW,Population,[1],0.00291%
DPQELEGVYERLVSLF,Rank (after),[14],405
same,Rank (before),[15],2994
SSFRECLWRLLELSKK,Population,[1],0.00466%
DHHLDLPSGKAIKPDILG,Rank (after),[2],107
same,Rank (before),[3],2044
DPQALDWLYERLVSLF,P8_MyD88 Rank (after),[12],203
same,P8_MyD88 Rank (before),[13],2685
PEKIMAAKMRLSITL,P3_MyD88 Rank (after),[12],274
same,P3_MyD88 Rank (before),[13],2702
DHHLDLSRGKSIKPDILG,Rank (after),[2],435
same,Rank (before),[3],2053
SSFREGLWRLLELSEK,Population,[1],0.00349%
YELDFSHFWLFDAGGDA,P8_MyD88 Rank (after),[12],265
same,P8_MyD88 Rank (before),[13],537
GLSWGPYEWWIDLYDA,Rank (after),[8],889
same,Rank (before),[9],2308
DSFFWDRLLYILHVTE,P8_MyD88 Rank (after),[4],654
same,P8_MyD88 Rank (before),[5],3075
KWFWDKLKYALPHRYEP,Rank (after),[2],128
same,Rank (before),[3],790
LVAMKLPRACLKRLK,P3_MyD88 Rank (after),[10],505
same,P3_MyD88 Rank (before),[11],2318
DYASYDDNDYYWVTHVLLRHL,Rank (after),[14],439
same,Rank (before),[15],1058
KWLWDKLIYARSRNPH,P3_MyD88 Rank (after),[10],490
same,P3_MyD88 Rank (before),[11],3584
RTLLENLWASVDISHK,P3_MyD88 Rank (after),[6],732
same,P3_MyD88 Rank (before),[7],2643
LKVESWRQALEKAGN,Rank (after),[2],126
same,Rank (before),[3],1081
LGYHWMGWEYFVGIED,P8_MyD88 Rank (after),[10],560
same,P8_MyD88 Rank (before),[11],3298
KEVEGWRDALTKAANL,Rank (after),[2],138
same,Rank (before),[3],3640
HSEWACHELYFSHFWP,P3_MyD88 Rank (after),[10],551
same,P3_MyD88 Rank (before),[11],2827
DFLSHLIKRLAVCTS,Rank (after),[8],896
same,Rank (before),[9],2347
YLRADDSWFEEKLLFA,P8_MyD88 Rank (after),[10],574
same,P8_MyD88 Rank (before),[11],2062
LKCGEPYFWSKLRYAM,Rank (after),[2],137
same,Rank (before),[3],2407
LNVESWRQALERAGKL,Rank (after),[2],187
same,Rank (before),[3],2402
AVAHEISNKMKIFATI,P3_MyD88 Rank (after),[12],270
same,P3_MyD88 Rank (before),[13],1888
SSFREGLWRLPELSRK,Rank (after),[2],121
same,Rank (before),[3],3183
WDFAGNWEQFWDRLSY,P8_MyD88 Rank (after),[6],772
same,P8_MyD88 Rank (before),[7],1576
VSHLSDSFERYGIMFF,P8_MyD88 Rank (after),[6],731
same,P8_MyD88 Rank (before),[7],2266
NQWRNALTATANLSGC,Rank (after),[2],419
same,Rank (before),[3],3517
PQDLAWYYVRLVSLIL,P8_MyD88 Rank (after),[4],583
same,P8_MyD88 Rank (before),[5],3423
YASYDDNDYYWLTNVLLRLL,P8_MyD88 Rank (after),[6],710
same,P8_MyD88 Rank (before),[7],1778
RSFREGPWRLLELSKK,Rank (after),[2],414
same,Rank (before),[3],2694
NELCMCGAAKRIAWW,Rank (after),[2],175
same,Rank (before),[3],1238
WALDELLQILHACEPF,P8_MyD88 Rank (after),[10],524
same,P8_MyD88 Rank (before),[11],1441
AVDKKTDKIQTPRKNA,Rank (after),[2],468
same,Rank (before),[3],1938
LNWGDPYFWSKLRYAM,Population,[1],0.00291%
WDFASNMNSFGIVCI,Rank (after),[8],974
same,Rank (before),[9],1628
GEDTLYTFTGHLQATL,P3_MyD88 Rank (after),[6],719
same,P3_MyD88 Rank (before),[7],1830
LGYHWIDWAYSVGIED,P8_MyD88 Rank (after),[6],750
same,P8_MyD88 Rank (before),[7],3251
DPQELGWFYERPFSQM,P8_MyD88 Rank (after),[10],554
same,P8_MyD88 Rank (before),[11],2981
NRWRNALTAAANLRGG,P3_MyD88 Rank (after),[10],510
same,P3_MyD88 Rank (before),[11],3457
LGYHWNDREYFLDIED,P8_MyD88 Rank (after),[10],536
same,P8_MyD88 Rank (before),[11],3307
